In publication PMC8869984, “Multifunctional Silver(I) Complexes with Metronidazole Drug Reveal Antimicrobial Properties and Antitumor Activity against Human Hepatoma and Colorectal Adenocarcinoma Cells” (Cancers, 2022):
In brackets after ≈: the same amount, converted by molar mass. Read-outs that look alike come from different tables or passages of the source.

Legend:
HepG2 cells [1] = experiment: MTT assay (mitochondrial activity), 72 h exposure; type: cell-based, human; details: Homo sapiens, mean ± SD, n = 3
Method: (§1) The human hepatoma (HepG2) and colorectal adenocarcinoma (Caco-2) cells were purchased from the American Type Culture Collection: ATCC HB-8065 and ATCC HTB-37, respectively. These cells were cultured in Minimum Essential Medium Eagle (MEME) (ATCC). The murine fibroblasts cell line (Balb/c 3T3 clone A31) (gift from the Department of Swine Diseases of the National Veterinary Research Institute in Pulawy) was cultured in Dulbecco’s Modified Eagle Medium (DMEM) (ATCC). The media were supplemented with 10% BCS (Balb/c 3T3), 10% FBS (HepG2), 20% FBS (Caco-2), 1% L-glutamine, 1% antibiotic solution. The cells were maintained in 75 cm^2 cell culture flasks (NUNC) in a humidified incubator at 37 °C in an atmosphere of 5% CO2. The medium was refreshed every two or three days, and the cells were trypsinized by 0.25% trypsin–0.02% EDTA after reaching 70–80% confluence. Single cell suspensions were prepared and adjusted to a density of 2 × 10^5 cell/mL^−1 (HepG2), 1 × 10^5 cell/mL^−1 (Caco-2) and 5 × 10^4 cell/mL^−1 (Balb/c 3T3). The cell suspension was transferred to 96-well plates (100 µL/well) and incubated for 24 h before the exposure to the studied compounds. Stock solutions of ligands and metal complexes were prepared in sterile water and diluted with culture medium to obtain a concentration range from 0.1 to 10 µM. The final concentration of sterile water was 0.1% in the medium. […] As a negative control, cultured cells were grown in the absence of studied compounds. Each concentration was tested in six replicates in three independent experiments. Cytotoxicity was assessed after 72 h of exposure of the cells to compounds. The medium was not changed during the incubation time.
The metabolic activity of living cells was assessed by the measurement of the activity of dehydrogenases. […] The plate was shaken for 15 min at room temperature and transferred to a microplate reader Synergy HTX multi-mode reader (BioTek® Instruments Inc., Winooski, VT, USA) to measure the absorbance at 570 nm, using a blank as a reference. Cytotoxicity was expressed as a percentage of the negative control. […]

HepG2 cells [2] = experiment: NRU assay (lysosomal activity), 72 h exposure; type: cell-based, human; details: Homo sapiens, mean ± SD, n = 3
Method: as §1
This method is based on staining living cells with neutral red, which readily diffuses through the plasma membrane and accumulates in lysosomes. […] After 10 min of shaking, the absorbance of the dissolved NR was measured using a Synergy HTX multi-mode reader (BioTek® Instruments Inc., Winooski, VT, USA) at 540 nm using a blank as a reference. Cytotoxicity was expressed as a percentage of the negative control. […]

S. aureus ATCC 25923 = experiment: micro-dilution broth method (MIC, MBC); type: cell-based, Staphylococcus aureus
B. subtilis ATCC 6633 = experiment: micro-dilution broth method (MIC, MBC); type: cell-based, Bacillus subtilis
B. cereus ATCC 10876 = experiment: micro-dilution broth method (MIC, MBC); type: cell-based, Bacillus cereus
E. faecalis ATCC 29212 = experiment: micro-dilution broth method (MIC, MBC); type: cell-based, Enterococcus faecalis
P. acnes ATCC 11827 = experiment: micro-dilution broth method (MIC, MBC); type: cell-based, Propionibacterium acnes
[3] = test system: C. perfringens ATCC 13124; experiment: microbe, parasite or virus in culture; type: cell-based, Clostridium perfringens
H. pylori ATCC 43504 = experiment: micro-dilution broth method (MIC, MBC); type: cell-based
[4] = test system: S. typhimurium ATCC 14028; experiment: micro-dilution broth method (MIC, MBC); type: cell-based, Salmonella Typhimurium
E. coli ATCC 25922 = experiment: micro-dilution broth method (MIC, MBC); type: cell-based, Escherichia coli
K. pneumoniae ATCC 13883 = experiment: micro-dilution broth method (MIC, MBC); type: cell-based, Klebsiella pneumoniae
P. aeruginosa ATCC 9027 = experiment: micro-dilution broth method (MIC, MBC); type: cell-based, Pseudomonas aeruginosa
F. nucleatum ATCC 25586 = experiment: micro-dilution broth method (MIC, MBC); type: cell-based, Fusobacterium nucleatum
[5] = S. aureus ATCC 25923, value in brackets
[6] = B. subtilis ATCC 6633, value in brackets
[7] = B. cereus ATCC 10876, value in brackets
[8] = E. faecalis ATCC 29212, value in brackets
[9] = P. acnes ATCC 11827, value in brackets
[10] = C. perfringens ATCC 13124, value in brackets
[11] = Clostridium perfringens, ATCC13124
[12] = H. pylori ATCC 43504, value in brackets
[13] = S. typhimurium ATCC 14028, value in brackets
[14] = E. coli ATCC 25922, value in brackets
[15] = K. pneumoniae ATCC 13883, value in brackets
[16] = P. aeruginosa ATCC 9027, value in brackets
[17] = F. nucleatum ATCC 25586, value in brackets
[18] = Fusobacterium nucleatum, ATCC25586

## Cc1ncc([N+](=O)[O-])n1CCO [MTZ, 2-Methyl-5-nitroimidazole-1-ethanol]
HepG2 cells [1]
  IC50: > 10 µM
HepG2 cells [2]
  IC50: > 10 µM
S. aureus ATCC 25923; [5]
  MBC: > 5.85 µM/mL
  MIC: > 5.85 µM/mL
S. aureus ATCC 25923; Staphylococcus aureus, ATCC25923, S. aureus ATCC 25923, read-out: MBC
  MBC: > 1000 µg/mL
S. aureus ATCC 25923; Staphylococcus aureus, ATCC25923, S. aureus ATCC 25923, read-out: MIC
  MIC: > 1000 µg/mL
B. subtilis ATCC 6633; [6]
  MBC: 1.46 µM/mL
  MIC: 0.73 µM/mL
B. subtilis ATCC 6633; Bacillus subtilis, ATCC6633, B. subtilis ATCC 6633, read-out: MBC
  MBC: 250 µg/mL (≈ 1.46 mM)
B. cereus ATCC 10876; [7]
  MBC: > 5.85 µM/mL
  MIC: 2.93 µM/mL
B. cereus ATCC 10876; Bacillus cereus, ATCC10876, B. cereus ATCC 10876, read-out: MBC
  MBC: > 1000 µg/mL
B. cereus ATCC 10876; Bacillus cereus, ATCC10876, B. cereus ATCC 10876, read-out: MIC
  MIC: 500 µg/mL (≈ 2.92 mM)
E. faecalis ATCC 29212; [8]
  MBC: > 5.85 µM/mL
  MIC: > 5.85 µM/mL
E. faecalis ATCC 29212; Enterococcus faecalis, ATCC29212, E. faecalis ATCC 29212, read-out: MBC
  MBC: > 1000 µg/mL
E. faecalis ATCC 29212; Enterococcus faecalis, ATCC29212, E. faecalis ATCC 29212, read-out: MIC
  MIC: > 1000 µg/mL
P. acnes ATCC 11827; Cutibacterium acnes, ATCC11827, P. acnes ATCC 11827, read-out: MBC
  MBC: > 1000 µg/mL
P. acnes ATCC 11827; Cutibacterium acnes, ATCC11827, P. acnes ATCC 11827, read-out: MIC
  MIC: > 1000 µg/mL
P. acnes ATCC 11827; [9]
  MBC: > 5.85 µM/mL
  MIC: > 5.85 µM/mL
[3]; [10]
  MBC: 0.01 µM/mL
  MIC: 0.01 µM/mL
[3]; [11]
  MBC: 1.95 µg/mL (≈ 0.0114 mM)
  MIC: 1.95 µg/mL (≈ 0.0114 mM)
H. pylori ATCC 43504; [12]
  MBC: 0.09 µM/mL
  MIC: 0.09 µM/mL
H. pylori ATCC 43504; Helicobacter pylori, ATCC43504, H. pylori ATCC 43504, read-out: MBC
  MBC: 15.6 µg/mL (≈ 0.0911 mM)
H. pylori ATCC 43504; Helicobacter pylori, ATCC43504, H. pylori ATCC 43504, read-out: MIC
  MIC: 15.6 µg/mL (≈ 0.0911 mM)
[4]; [13]
  MBC: > 5.85 µM/mL
  MIC: > 5.85 µM/mL
[4]; Salmonella enterica, S. typhimurium ATCC 14028, read-out: MBC
  MBC: > 1000 µg/mL
[4]; Salmonella enterica, S. typhimurium ATCC 14028, read-out: MIC
  MIC: > 1000 µg/mL
E. coli ATCC 25922; [14]
  MBC: > 5.85 µM/mL
  MIC: > 5.85 µM/mL
E. coli ATCC 25922; Escherichia coli, ATCC25922, E. coli ATCC 25922, read-out: MBC
  MBC: > 1000 µg/mL
E. coli ATCC 25922; Escherichia coli, ATCC25922, E. coli ATCC 25922, read-out: MIC
  MIC: > 1000 µg/mL
K. pneumoniae ATCC 13883; [15]
  MBC: 5.85 µM/mL
  MIC: 5.85 µM/mL
K. pneumoniae ATCC 13883; Klebsiella pneumoniae, ATCC13883, K. pneumoniae ATCC 13883, read-out: MBC
  MBC: 1000 µg/mL (≈ 5.84 mM)
K. pneumoniae ATCC 13883; Klebsiella pneumoniae, ATCC13883, K. pneumoniae ATCC 13883, read-out: MIC
  MIC: 1000 µg/mL (≈ 5.84 mM)
P. aeruginosa ATCC 9027; [16]
  MBC: > 5.85 µM/mL
  MIC: > 5.85 µM/mL
P. aeruginosa ATCC 9027; Pseudomonas aeruginosa, ATCC9027, P. aeruginosa ATCC 9027, read-out: MBC
  MBC: > 1000 µg/mL
P. aeruginosa ATCC 9027; Pseudomonas aeruginosa, ATCC9027, P. aeruginosa ATCC 9027, read-out: MIC
  MIC: > 1000 µg/mL
F. nucleatum ATCC 25586; [17]
  MBC: 0.01 µM/mL
  MIC: 0.01 µM/mL
F. nucleatum ATCC 25586; [18]
  MBC: 1.95 µg/mL (≈ 0.0114 mM)
  MIC: 1.95 µg/mL (≈ 0.0114 mM)

## O=[N+]([O-])[O-].[Ag+] [AgNO3, Silver nitrate]
S. aureus ATCC 25923; S. aureus ATCC 25923
  MBC: 31.3 µg/mL
  MIC: 7.8 µg/mL
S. aureus ATCC 25923; [5]
  MBC: 0.185 µM/mL
  MIC: 0.049 µM/mL
B. subtilis ATCC 6633; B. subtilis ATCC 6633
  MBC: 15.6 µg/mL
  MIC: 15.6 mg/L
B. subtilis ATCC 6633; [6]
  MBC: 0.09 µM/mL
  MIC: 0.09 µM/mL
B. cereus ATCC 10876; B. cereus ATCC 10876
  MBC: 62.5 µg/mL
  MIC: 31.3 µg/mL
B. cereus ATCC 10876; [7]
  MBC: 0.37 µM/mL
  MIC: 0.185 µM/mL
E. faecalis ATCC 29212; E. faecalis ATCC 29212
  MBC: 31.3 µg/mL
  MIC: 15.6 µg/mL
E. faecalis ATCC 29212; [8]
  MBC: 0.185 µM/mL
  MIC: 0.09 µM/mL
P. acnes ATCC 11827; P. acnes ATCC 11827
  MBC: 62.5 µg/mL
  MIC: 62.5 µg/mL
P. acnes ATCC 11827; [9]
  MBC: 0.37 µM/mL
  MIC: 0.37 µM/mL
[3]; C. perfringens ATCC 13124
  MBC: 62.5 µg/mL
  MIC: 62.5 µg/mL
[3]; [10]
  MBC: 0.37 µM/mL
  MIC: 0.37 µM/mL
H. pylori ATCC 43504; H. pylori ATCC 43504
  MBC: 15.6 µg/mL
  MIC: 15.6 µg/mL
H. pylori ATCC 43504; [12]
  MBC: 0.09 µM/mL
  MIC: 0.09 µM/mL
[4]; S. typhimurium ATCC 14028
  MBC: 15.6 µg/mL
  MIC: 15.6 µg/mL
[4]; [13]
  MBC: 0.09 µM/mL
  MIC: 0.09 µM/mL
E. coli ATCC 25922; E. coli ATCC 25922
  MBC: 15.6 µg/mL
  MIC: 7.8 µg/mL
E. coli ATCC 25922; [14]
  MBC: 0.09 µM/mL
  MIC: 0.049 µM/mL
K. pneumoniae ATCC 13883; K. pneumoniae ATCC 13883
  MBC: 7.8 µg/mL
  MIC: 7.8 µg/mL
K. pneumoniae ATCC 13883; [15]
  MBC: 0.049 µM/mL
  MIC: 0.049 µM/mL
P. aeruginosa ATCC 9027; P. aeruginosa ATCC 9027
  MBC: 3.9 µg/mL
  MIC: 3.9 µg/mL
P. aeruginosa ATCC 9027; [16]
  MBC: 0.025 µM/mL
  MIC: 0.025 µM/mL
F. nucleatum ATCC 25586; F. nucleatum ATCC 25586
  MBC: 0.98 µg/mL
  MIC: 0.49 µg/mL
F. nucleatum ATCC 25586; [17]
  MBC: 0.006 µM/mL
  MIC: 0.003 µM/mL
